The target in experiment [1] is T1, human PEPP1 PH domain (Ser-Ala-Ser to Arg-Pro-Gln, accession N31123), GST fusion (Homo sapiens, UniProt Q9H4M7).
T1 construct: DNA probe corresponding to the N-terminal 15 to 169 residues of PEPP1; made in house; host or cells: E. coli BL21 (pGEX4T-1)
Description: Surface plasmon resonance (BIACore), GST fusion binding to phosphoinositide in supported lipid monolayer. To be noted: supported phosphatidylcholine monolayers, 1:1 binding model, NB, no binding detected, read-out: Apparent Kd. The text has this:
(§1) Cloning of PH domains and preparation of expression constructs. All the human and mouse EST's were obtained from the I.M.A.G.E. Consortium and sequenced. The plant EST (accession number T04439) encoding a full length clone of AtPH1 was obtained from the Arabidopsis Biological Research. Centre (Ohio University). The sequence of each EST was verified and the full length PH domain of each EST was amplified by PCR using the Hi-fidelity PCR system with primers designed to incorporate a Kozak site, an initiating ATG codon followed by a myc epitope tag and a stop codon after the PH domain. […]
Expression of GST-PH domains in E.coli. The pGEX4T-1 constructs encoding the PH domains of FAPP1, AtPH1, PEPP1, LL5α, LL5β, evectin-2 and PH30 were transformed into BL21 E.coli cells and a 0.5 L culture was grown at 37° C. in Luria Broth containing 100 μg/ml ampicillin, until the absorbance at 600 nm was 0.6. […]
Kinetic analyses of the interactions between the GST PH domain fusions and the polyphosphoinositides were made using surface plasmon resonance based procedures as described previously, with the following modifications. […] Data were analysed using the bimolecular interaction model and the global fitting feature of the BIAevaluation 3 software for several sensorgrams at different protein concentrations. […]

The target of experiment [2] is mouse centaurin-β2 PH domain (residues 266 to 390), GST fusion (Mus musculus, UniProt Q6ZQK5). Description: Protein-lipid overlay. The conditions noted are these: FIG. 2. In kind it is binding. As to the method:
FIG. 2. Phosphoinositide binding properties of the novel PH domains. The ability of the indicated GST fusion proteins to bind a variety of phosphoinositides was analysed using a protein-lipid overlay. Serial dilutions of the indicated phosphoinositides (100 pmol, 50 pmol, 25 pmol, 12.5 pmol, 6.3 pmol, 3.1 pmol and 1.6 pmol) were spotted onto a nitrocellulose membranes which were then incubated with the purified GST fusion proteins. The membranes were washed and the GST-fusion proteins bound to the membrane by virtue of their interaction with lipid were detected using a GST antibody. A representative of at least 3 separate experiments carried out is shown.
as §1

This is an account of results in patent US20040106148A1, “Polypeptides” (priority 2000, published 2004).

T1 sequence (Q9H4M7 15-169): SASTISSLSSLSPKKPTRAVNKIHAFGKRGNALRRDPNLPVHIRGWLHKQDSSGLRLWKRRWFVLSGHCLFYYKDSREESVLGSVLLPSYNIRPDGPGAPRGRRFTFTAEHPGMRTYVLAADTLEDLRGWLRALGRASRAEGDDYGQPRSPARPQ
Chain of mouse centaurin-β2 PH domain (residues 266 to 390), GST fusion (Q6ZQK5 266-390): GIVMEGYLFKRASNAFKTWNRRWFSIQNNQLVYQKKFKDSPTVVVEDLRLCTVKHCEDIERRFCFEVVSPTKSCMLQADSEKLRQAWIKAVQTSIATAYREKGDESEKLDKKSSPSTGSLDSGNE

Take `CCCCCCCCCCCCCCCC(=O)OC[C@H](COP(=O)(O)O[C@@H]1[C@H](O)[C@H](OP(=O)(O)O)[C@@H](O)[C@H](O)[C@H]1O)OC(=O)CCCCCCCCCCCCCCC` [PtdIns3P]: in experiment [1], the Kd amounted to 325 nM.
As for `CCCCCCCCCCCCCCCC(=O)OC[C@H](COP(=O)(O)O[C@@H]1[C@H](O)[C@H](OP(=O)(O)O)[C@@H](O)[C@H](OP(=O)(O)O)[C@H]1O)OC(=O)CCCCCCCCCCCCCCC` [PtdIns(3,5)P2], in experiment [2], the phosphoinositide binding entry was “moderate affinity”.
